In ChEMBL document CHEMBL5291721, “A preclinical secondary pharmacology resource illuminates target-adverse drug reaction associations of marketed drugs” (Nat Commun, 2023):

Tests used:
[1] = biological target: Acetylcholinesterase (Homo sapiens, UniProt P22303); assay type: functional
[2] = biological target: T1, Alpha-1A adrenergic receptor (Homo sapiens, UniProt P35348); assay type: functional, cell-based
T1 sequence (P35348 whole entry): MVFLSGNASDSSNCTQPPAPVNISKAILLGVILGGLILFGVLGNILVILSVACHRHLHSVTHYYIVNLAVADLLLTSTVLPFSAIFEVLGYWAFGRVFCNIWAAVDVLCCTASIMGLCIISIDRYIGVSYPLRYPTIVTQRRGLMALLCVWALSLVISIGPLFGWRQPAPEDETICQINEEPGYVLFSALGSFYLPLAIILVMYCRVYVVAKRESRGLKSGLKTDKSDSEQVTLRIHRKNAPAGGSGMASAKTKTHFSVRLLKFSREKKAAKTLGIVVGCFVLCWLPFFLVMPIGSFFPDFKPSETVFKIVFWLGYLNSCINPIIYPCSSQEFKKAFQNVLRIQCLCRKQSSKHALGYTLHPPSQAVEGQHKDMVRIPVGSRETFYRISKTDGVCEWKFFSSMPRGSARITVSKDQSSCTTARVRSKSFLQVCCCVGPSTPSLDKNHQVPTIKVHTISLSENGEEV

[3] = biological target: T1, Alpha-1A adrenergic receptor; assay type: functional, cell-based; remark: listed apart in the source
[4] = biological target: 3',5'-cyclic-AMP phosphodiesterase 4A (Homo sapiens, UniProt P27815); assay type: functional
[5] = biological target: D(3) dopamine receptor (Homo sapiens, UniProt P35462)
[6] = biological target: Prostaglandin G/H synthase 1 (Homo sapiens, UniProt P23219); assay type: functional
[7] = biological target: Sodium-dependent noradrenaline transporter (Homo sapiens, UniProt P23975)
[8] = biological target: T2, Thromboxane A2 receptor (Homo sapiens, UniProt P21731); assay type: functional, cell-based
T2 sequence (P21731 whole entry): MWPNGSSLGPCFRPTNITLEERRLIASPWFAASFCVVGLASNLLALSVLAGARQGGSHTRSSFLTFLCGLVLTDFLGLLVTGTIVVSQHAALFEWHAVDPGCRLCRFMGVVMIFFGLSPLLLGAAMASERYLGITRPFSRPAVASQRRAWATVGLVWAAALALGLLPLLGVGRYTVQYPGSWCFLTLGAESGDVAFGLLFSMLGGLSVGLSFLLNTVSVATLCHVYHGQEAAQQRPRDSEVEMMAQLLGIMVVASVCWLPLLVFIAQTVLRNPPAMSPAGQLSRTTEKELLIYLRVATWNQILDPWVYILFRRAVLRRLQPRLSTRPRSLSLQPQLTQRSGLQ

[9] = biological target: T3, Progesterone receptor (Homo sapiens, UniProt P06401)
T3 sequence (P06401 whole entry): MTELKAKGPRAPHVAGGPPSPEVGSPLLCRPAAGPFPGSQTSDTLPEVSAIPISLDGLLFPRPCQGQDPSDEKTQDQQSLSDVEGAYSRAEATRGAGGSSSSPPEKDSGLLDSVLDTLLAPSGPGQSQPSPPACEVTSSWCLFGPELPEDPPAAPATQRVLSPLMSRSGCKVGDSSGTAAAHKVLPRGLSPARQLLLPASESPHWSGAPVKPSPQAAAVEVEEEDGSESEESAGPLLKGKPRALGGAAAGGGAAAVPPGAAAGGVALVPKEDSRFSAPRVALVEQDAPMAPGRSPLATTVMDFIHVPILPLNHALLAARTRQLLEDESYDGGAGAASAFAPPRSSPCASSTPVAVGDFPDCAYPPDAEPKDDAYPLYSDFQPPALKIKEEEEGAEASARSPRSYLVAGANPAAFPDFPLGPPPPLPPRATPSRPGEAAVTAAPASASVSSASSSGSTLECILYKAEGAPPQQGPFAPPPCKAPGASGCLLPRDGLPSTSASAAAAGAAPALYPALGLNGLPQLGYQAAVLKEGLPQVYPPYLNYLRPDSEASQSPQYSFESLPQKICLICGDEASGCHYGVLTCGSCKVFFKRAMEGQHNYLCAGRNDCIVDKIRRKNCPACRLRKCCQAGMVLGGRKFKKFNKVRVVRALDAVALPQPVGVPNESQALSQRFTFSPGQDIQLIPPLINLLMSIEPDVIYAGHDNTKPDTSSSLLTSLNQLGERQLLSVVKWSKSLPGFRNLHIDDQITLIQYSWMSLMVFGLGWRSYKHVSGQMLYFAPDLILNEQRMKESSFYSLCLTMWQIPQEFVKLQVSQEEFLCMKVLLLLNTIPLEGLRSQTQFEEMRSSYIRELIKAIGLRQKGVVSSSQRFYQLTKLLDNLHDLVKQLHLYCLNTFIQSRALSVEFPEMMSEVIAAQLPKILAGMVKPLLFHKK

[10] = biological target: T4, Adenosine receptor A3 (Homo sapiens, UniProt P0DMS8)
T4 sequence (P0DMS8 whole entry): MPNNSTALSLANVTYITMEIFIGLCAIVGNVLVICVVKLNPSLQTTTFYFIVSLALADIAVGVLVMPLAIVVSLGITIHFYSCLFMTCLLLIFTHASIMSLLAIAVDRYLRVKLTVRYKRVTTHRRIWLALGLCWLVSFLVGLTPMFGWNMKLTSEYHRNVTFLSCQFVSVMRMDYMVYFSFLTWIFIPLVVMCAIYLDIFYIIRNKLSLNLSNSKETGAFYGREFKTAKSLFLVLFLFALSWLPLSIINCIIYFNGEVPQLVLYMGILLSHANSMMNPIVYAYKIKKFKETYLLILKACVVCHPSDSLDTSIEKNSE

[11] = biological target: Sodium-dependent dopamine transporter (Homo sapiens, UniProt Q01959)
[12] = biological target: T2, Thromboxane A2 receptor; assay type: functional, cell-based; remark: listed apart in the source
Further: assay procedure not described here.

Chain of Acetylcholinesterase (P22303 whole entry): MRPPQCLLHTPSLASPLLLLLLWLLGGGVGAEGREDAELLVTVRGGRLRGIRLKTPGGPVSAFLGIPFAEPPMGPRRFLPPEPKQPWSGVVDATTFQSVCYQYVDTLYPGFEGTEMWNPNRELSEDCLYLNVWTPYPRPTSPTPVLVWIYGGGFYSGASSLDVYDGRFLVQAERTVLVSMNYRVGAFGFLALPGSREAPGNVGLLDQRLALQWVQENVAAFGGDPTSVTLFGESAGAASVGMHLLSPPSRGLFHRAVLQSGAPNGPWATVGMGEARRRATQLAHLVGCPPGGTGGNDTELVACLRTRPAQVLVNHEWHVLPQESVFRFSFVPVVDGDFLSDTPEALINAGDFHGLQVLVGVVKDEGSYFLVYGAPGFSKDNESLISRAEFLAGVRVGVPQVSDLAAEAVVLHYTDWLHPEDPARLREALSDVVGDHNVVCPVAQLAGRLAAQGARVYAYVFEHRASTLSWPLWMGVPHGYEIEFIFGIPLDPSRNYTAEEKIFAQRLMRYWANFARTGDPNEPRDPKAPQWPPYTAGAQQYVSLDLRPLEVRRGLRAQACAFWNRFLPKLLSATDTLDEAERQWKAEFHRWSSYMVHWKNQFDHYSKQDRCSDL
Chain of Sodium-dependent dopamine transporter (Q01959 whole entry): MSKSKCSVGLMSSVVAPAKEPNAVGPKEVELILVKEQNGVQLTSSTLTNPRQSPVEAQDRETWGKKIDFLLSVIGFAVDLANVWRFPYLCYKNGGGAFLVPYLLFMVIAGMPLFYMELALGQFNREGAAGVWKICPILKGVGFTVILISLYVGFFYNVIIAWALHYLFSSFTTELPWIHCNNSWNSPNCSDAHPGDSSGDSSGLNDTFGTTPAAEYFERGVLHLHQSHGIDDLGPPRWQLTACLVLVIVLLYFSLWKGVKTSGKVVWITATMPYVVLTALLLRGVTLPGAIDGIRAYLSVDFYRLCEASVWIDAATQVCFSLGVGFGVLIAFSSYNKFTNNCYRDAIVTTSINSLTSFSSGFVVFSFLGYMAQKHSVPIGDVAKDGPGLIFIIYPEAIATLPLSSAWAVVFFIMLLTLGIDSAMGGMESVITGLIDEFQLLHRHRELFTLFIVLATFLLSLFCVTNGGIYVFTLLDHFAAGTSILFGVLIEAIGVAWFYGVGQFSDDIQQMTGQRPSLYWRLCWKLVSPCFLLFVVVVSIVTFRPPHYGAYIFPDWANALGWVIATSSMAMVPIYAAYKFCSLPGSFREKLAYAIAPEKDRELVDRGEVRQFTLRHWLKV
Chain of 3',5'-cyclic-AMP phosphodiesterase 4A (P27815 whole entry): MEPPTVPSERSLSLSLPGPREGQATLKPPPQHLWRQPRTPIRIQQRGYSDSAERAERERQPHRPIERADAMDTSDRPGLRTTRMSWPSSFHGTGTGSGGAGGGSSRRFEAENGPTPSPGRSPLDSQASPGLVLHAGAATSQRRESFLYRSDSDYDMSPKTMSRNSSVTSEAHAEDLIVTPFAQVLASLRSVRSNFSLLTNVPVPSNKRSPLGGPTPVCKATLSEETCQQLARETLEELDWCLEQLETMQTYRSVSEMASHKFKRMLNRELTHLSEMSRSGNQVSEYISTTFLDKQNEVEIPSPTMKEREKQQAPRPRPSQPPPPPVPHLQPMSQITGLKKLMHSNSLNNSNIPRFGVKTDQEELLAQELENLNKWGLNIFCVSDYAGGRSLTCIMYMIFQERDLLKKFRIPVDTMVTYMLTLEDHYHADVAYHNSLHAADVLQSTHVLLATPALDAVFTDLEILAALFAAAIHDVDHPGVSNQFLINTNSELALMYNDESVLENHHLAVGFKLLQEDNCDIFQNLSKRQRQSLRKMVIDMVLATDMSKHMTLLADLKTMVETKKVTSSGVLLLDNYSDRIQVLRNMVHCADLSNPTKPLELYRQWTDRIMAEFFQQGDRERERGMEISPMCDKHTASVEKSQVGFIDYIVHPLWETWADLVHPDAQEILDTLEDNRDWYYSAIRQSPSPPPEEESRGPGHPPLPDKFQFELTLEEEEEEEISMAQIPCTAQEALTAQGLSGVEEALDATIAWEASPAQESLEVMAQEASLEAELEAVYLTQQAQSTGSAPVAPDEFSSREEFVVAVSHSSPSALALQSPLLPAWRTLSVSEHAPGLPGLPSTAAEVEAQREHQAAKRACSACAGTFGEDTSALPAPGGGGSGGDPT
Chain of Sodium-dependent noradrenaline transporter (P23975 whole entry): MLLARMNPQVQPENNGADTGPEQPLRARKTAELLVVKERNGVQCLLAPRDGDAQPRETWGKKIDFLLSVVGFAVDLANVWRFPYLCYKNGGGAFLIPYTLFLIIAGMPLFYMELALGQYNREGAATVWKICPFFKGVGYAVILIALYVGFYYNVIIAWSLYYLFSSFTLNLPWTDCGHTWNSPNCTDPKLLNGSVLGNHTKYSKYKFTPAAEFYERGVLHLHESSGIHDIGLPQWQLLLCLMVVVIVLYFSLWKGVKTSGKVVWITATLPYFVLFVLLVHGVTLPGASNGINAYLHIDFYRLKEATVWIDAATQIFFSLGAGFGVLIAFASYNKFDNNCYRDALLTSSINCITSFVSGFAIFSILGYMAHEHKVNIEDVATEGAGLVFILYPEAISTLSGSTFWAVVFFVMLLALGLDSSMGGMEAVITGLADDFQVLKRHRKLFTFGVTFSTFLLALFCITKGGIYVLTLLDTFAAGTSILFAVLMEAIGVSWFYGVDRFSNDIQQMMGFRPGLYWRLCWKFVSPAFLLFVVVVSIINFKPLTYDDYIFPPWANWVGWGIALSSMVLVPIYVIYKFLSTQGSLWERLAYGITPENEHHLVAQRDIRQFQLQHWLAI
Chain of Prostaglandin G/H synthase 1 (P23219 whole entry): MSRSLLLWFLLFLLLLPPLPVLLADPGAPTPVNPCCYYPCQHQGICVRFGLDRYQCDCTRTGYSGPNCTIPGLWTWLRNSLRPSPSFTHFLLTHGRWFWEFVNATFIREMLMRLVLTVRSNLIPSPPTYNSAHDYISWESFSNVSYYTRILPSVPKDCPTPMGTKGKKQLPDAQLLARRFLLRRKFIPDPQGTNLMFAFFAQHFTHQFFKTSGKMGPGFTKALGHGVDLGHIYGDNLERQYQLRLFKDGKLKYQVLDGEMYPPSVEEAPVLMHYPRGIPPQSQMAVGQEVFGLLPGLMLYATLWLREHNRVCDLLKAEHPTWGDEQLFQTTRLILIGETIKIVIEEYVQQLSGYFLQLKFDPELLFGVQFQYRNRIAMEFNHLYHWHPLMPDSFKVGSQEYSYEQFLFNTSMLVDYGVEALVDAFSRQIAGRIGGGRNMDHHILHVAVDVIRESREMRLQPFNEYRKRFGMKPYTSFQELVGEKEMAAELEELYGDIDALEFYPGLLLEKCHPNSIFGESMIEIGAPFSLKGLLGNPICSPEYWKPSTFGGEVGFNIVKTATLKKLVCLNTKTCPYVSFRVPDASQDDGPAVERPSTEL
Chain of D(3) dopamine receptor (P35462 whole entry): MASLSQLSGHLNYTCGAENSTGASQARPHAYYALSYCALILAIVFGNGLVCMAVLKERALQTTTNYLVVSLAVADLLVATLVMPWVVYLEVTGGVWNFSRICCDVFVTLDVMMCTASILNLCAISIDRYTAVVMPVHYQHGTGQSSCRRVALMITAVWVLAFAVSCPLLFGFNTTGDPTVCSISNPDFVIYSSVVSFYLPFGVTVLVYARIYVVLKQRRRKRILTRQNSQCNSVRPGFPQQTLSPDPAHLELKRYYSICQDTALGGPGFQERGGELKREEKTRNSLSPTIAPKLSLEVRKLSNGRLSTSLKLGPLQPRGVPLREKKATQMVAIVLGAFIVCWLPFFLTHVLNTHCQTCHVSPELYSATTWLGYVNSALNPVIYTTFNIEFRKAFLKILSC

| SMILES | AC50 [1] [µM] | AC50 [2] [µM] | AC50 [3] [µM] | AC50 [4] [µM] | AC50 [5] [µM] | AC50 [6] [µM] | AC50 [7] [µM] | AC50 [8] [µM] | AC50 [9] [µM] | AC50 [10] [µM] | AC50 [11] [µM] | AC50 [12] [µM] |
| --- | --- | --- | --- | --- | --- | --- | --- | --- | --- | --- | --- | --- |
| CC/C=C\C/C=C\C/C=C\C/C=C\C/C=C\CCCC(=O)O [ICOSAPENT] | > 30 | > 30 | > 30 | > 30 | > 30 | > 10 | > 30 | > 30 | > 30 | 25.3 | > 30 | > 30 |
| CS(=O)(=O)Nc1cc2occ(NC=O)c(=O)c2cc1Oc1ccccc1 [IGURATIMOD] | > 30 | > 30 | > 30 | 1.75 | > 30 | 4.51 | > 30 | > 30 | > 30 | 1.44 | > 30 | > 30 |
| Oc1c(I)cc(I)c2cccnc12 [IODOQUINOL] | > 30 | > 30 | > 30 | > 30 | > 30 | > 30 | 0.874 | > 30 | > 30 | > 3 | > 30 | > 30 |
| CCC(Cc1c(I)cc(I)c(N)c1I)C(=O)O (configuration not stated) [IOPANOIC ACID] | > 30 | > 30 | 24.2 | 12.2 | > 30 | > 30 | > 30 | > 30 | > 30 | > 30 | > 30 | 14.4 |
| O=C(NC1CCN(CCCCC2(C(=O)NCC(F)(F)F)c3ccccc3-c3ccccc32)CC1)c1ccccc1-c1ccc(C(F)(F)F)cc1 [LOMITAPIDE] | > 30 | > 30 | 2.4 | > 30 | 1.76 | 23.2 | 2.2 | 8.46 | > 30 | 4.4 | 0.239 | > 1 |
| CCC1(c2cccc(O)c2)CCCCN(C)C1 (configuration not stated) [MEPTAZINOL] | 5.51 | > 30 | > 30 | > 30 | > 30 | > 30 | > 30 | > 30 | > 30 | > 30 | > 30 | > 30 |
| C1N2CN3CN1CN(C2)C3 [METHENAMINE] | > 30 | > 30 | > 30 | > 30 | > 30 | > 30 | > 30 | > 30 | > 30 | > 30 | > 30 | > 30 |
| Cn1cc[nH]c1=S [METHIMAZOLE] | > 30 | > 30 | > 30 | > 30 | > 30 | 0.541 | > 30 | > 30 | > 30 | > 30 | > 30 | > 30 |
| CO[C@@]12[C@H](COC(N)=O)C3=C(C(=O)C(C)=C(N)C3=O)N1C[C@@H]1N[C@@H]12 [MITOMYCIN] | > 30 | > 30 | > 30 | > 30 | > 30 | > 30 | > 30 | > 30 | > 30 | > 30 | > 30 | > 30 |
| O=[N+]([O-])c1cncn1CCN1CCOCC1 [NIMORAZOLE] | > 30 | > 30 | > 30 | > 30 | > 30 | > 30 | > 30 | > 30 | > 30 | > 30 | > 30 | > 30 |
| Oc1cccc2cccnc12 [OXYQUINOLINE] | > 30 | > 30 | 20.8 | > 30 | > 30 | > 30 | > 30 | > 30 | > 30 | > 30 | > 30 | > 30 |
| Nc1nc2c(ncn2CCC(CO)CO)c(=O)[nH]1 [PENCICLOVIR] | > 30 | > 30 | > 30 | > 30 | > 30 | > 30 | > 30 | > 30 | > 30 | > 30 | > 30 | > 30 |
| CC[C@@H]1/C=C(\C)C[C@H](C)C[C@H](OC)[C@H]2O[C@@](O)(C(=O)C(=O)N3CCCC[C@H]3C(=O)O[C@H](/C(C)=C/[C@@H]3CC[C@H](Cl)[C@H](OC)C3)[C@H](C)[C@@H](O)CC1=O)[C@H](C)C[C@@H]2OC [PIMECROLIMUS] | > 30 | > 30 | > 30 | > 30 | > 30 | > 30 | > 30 | > 30 | > 30 | 5.19 | > 30 | > 30 |
| CC(C(=O)O)c1ccc2c(c1)Cc1cccnc1O2 (configuration not stated) [PRANOPROFEN] | > 30 | > 30 | > 30 | > 30 | > 30 | 0.478 | > 30 | > 30 | > 30 | > 30 | > 30 | > 30 |
| CN1CCC2=C(C1)c1ccccc1Cc1ccccc12 [SETIPTILINE] | > 30 | > 30 | 0.231 | > 30 | 0.543 | > 30 | 3.52 | > 30 | > 30 | > 30 | 24.1 | > 30 |
| COc1ccc(CCC(C)NCC(O)c2ccc(O)c([S+](C)[O-])c2)cc1 (configuration not stated) [SULFINALOL] | > 30 | > 30 | 20.3 | > 30 | > 30 | > 30 | 10.6 | > 30 | > 30 | > 30 | > 30 | > 30 |
